pEC50: −log10 of the molar value.

One data set concerns MelanoDerm™ Skin Model. Put plainly: MelanoDerm Study 1, MTT tissue viability (Example 19). Type of data set: cell-based, human. The conditions noted are these: 200 μM compared to 50 μM. The source says:
Treatments were as follows: 7-days of treatment in alternate days (7TD); 7-days of treatment in alternate days followed by 7-days without treatment (recovery) (7TD+7NTD); and 14-days of treatment in alternate days (14TD). The study also evaluated the potential dermal irritation induced by each test article as measured by the conversion of MTT by MelanoDerm™ tissues after repeated exposures to the test articles, over the treatment periods specified in the protocol.
(Berridge et al., 1996). The toxicity of the test articles to the tissue, which is evidence for potential dermal irritation, was determined by measuring the relative survival—the MTT conversion relative to the negative control-treated tissues.
The test articles, CV-8686 and AB11644, were provided as stock solutions (˜100 mM each) in DMSO. The test articles were administered to the test system as a 50 μM and 200 μM dilution in sterile, EPI-100-LLMM. Test article DMSO (vehicle control) was administered to the test system as a 0.2% dilution in sterile, EPI-100-LLMM.
The test articles were each prepared using the procedure as follows: starting from the stock concentrations provided, 2 μl of each test article were first diluted with the appropriate volume of EPI-100-LLMM to a final concentration of 200 μM. […]

Data set [1] addresses T1, arylhydrocarbon receptor (AhR) (Homo sapiens, UniProt P35869).
T1 sequence (P35869 11-848): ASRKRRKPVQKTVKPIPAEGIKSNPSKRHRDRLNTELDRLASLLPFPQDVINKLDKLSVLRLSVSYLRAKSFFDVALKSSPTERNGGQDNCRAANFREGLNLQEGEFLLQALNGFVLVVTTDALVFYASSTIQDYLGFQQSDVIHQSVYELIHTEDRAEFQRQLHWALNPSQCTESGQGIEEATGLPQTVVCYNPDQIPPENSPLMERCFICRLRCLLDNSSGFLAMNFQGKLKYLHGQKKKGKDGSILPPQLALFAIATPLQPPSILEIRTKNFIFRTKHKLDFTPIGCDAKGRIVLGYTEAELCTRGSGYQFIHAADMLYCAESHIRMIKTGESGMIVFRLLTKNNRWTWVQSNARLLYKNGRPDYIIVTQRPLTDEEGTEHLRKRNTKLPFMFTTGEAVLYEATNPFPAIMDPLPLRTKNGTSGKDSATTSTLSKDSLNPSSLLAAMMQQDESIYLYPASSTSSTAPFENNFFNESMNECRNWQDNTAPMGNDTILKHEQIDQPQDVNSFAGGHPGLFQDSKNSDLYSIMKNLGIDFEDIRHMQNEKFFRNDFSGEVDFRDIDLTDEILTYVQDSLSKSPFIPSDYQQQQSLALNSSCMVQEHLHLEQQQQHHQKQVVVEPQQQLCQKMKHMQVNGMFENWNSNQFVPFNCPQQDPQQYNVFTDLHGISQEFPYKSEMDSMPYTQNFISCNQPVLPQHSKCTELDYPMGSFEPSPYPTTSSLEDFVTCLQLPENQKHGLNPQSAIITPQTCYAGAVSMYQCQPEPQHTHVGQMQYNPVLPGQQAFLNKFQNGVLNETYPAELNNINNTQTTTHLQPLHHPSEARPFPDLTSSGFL
Nature of the data set: HepG2-AhR-Luciferase assay. To be noted: EC50 (uM), 24 hours of treatment.
Experimental: HepG2-AhR-Luc cells were purchased from Pharmaron, One-Glo Luciferase assay system was purchased from Promega. DMEM was purchased from Hyclone, and penicillin/streptomycin was purchased from Solabio.
Culture media for stably transfected HepG2 cells was prepared by supplementing DMEM with high glucose and L-glutamine, as well as 10% FBS.
HepG2-AhR-Luc cells were cultured in T-75 flasks at 37° C., 5% CO2, and 95% relative humidity. Cells were allowed to reach 80-90% confluence before detachment and splitting.
Cultivated cells were rinsed with 5 mL PBS. PBS was aspirated away, 1.5 mL trypsin was added to the flask, and cells were incubated at 37° C. for approximately 5 minutes or until the cells detached and floated. Trypsin was inactivated by adding excess serum-containing media.
The cell suspension was transferred to a conical tube and centrifuged at 120 g for 10 minutes to pellet the cells. Cells were resuspended in seeding media at a proper density. 40 μL of cells were transferred to a 384-well culture plate (5×10^3 cells/well). Plates were placed in the incubator at 37° C. for 24 hours.
Afterward, stock solutions of test compounds and omeprazole positive control were prepared. Compound solutions were transferred into the assay plate using Echo550. The plate was then placed back into the incubator for compound treatment.
Later, after 24 hours of treatment, the plate was removed from the incubator and allowed to cool at ambient temperature. 30 μL One-Glo reagent equal to that of the culture medium was added in each well. Cells were allowed to lyse for at least 3 minutes, and then measured in a luminometer.
Dose responses were graphed using the non-linear regression analysis in XLfit and EC50 values were also calculated.

For data set [2], the system named is MeWo cells. Nature of the data set: CellTiter-Glo cell viability assay (Example 9). Type of data set: cell-based. The conditions noted are these: 100, 10, 1 μM; 6, 24, 48, 72 hours. On the procedure: (§1) CellTiter-Glo® 2.0 assay was purchased from Promega. Cell seeding, preparation of the compound source plate, and exposure of cells to test compounds were performed as described in Example 8.
(§2) CellTiter-Glo® reagents were thawed and equilibrated to room temperature before the experiment. 40 μL of CellTiter-Glo® reagent was then added to each well for detection (at 1:1 ratio to culture medium). The plates were then incubated at room temperature for 30 minutes and read using EnSpire (PerkinElmer) plate reader. The remaining activity was calculated according to the following formula: Remaining Activity (%)=100%×(Lumsample−Lumbkg)/(Lumvehicle−Lumbkg).

For data set [3], the system named is MeWo cells. Put plainly: Preliminary annexin V-FITC assay (Example 7). It counts as cell-based. To be noted: 6-hour treatment. On the procedure: MeWo (ATCC® HTB-65™) and WM115 (ATCC® CRL-1675) cells were purchased from ATCC (Manassas, Va.) and maintained in the following: for MeWo:DMEM supplemented with 10% FBS; for WM115: RPMI 1640 supplemented with 10% FBS (10% FBS, 1% stabilized antibiotic anti-mycotic solution).
During the first set of studies, both MeWo and WM115 cells were treated with test compounds at 10 doses starting from 100 μM with 3-fold dilution. Staurosporine was used as positive control. After 6-hour treatment, cell apoptosis was assessed using an annexin V assay. The test compounds evaluated were CV-8684, CV-8685, CV-8686, CV-8687, and CV-8688.
For cell seeding, cells were harvested and the cell number was determined using Countess® cell counter. Cells were then diluted with culture medium to the desired density. 40 μL of cell suspension per well was added to the required number of wells in a 384-well plate (Corning 3712—clear bottom plate). The final cell density was 6,000 cells/well. After plating, the plates were incubated at 37° C., and 5% CO2 overnight.
For preparation of compound source plate, each test compound was dissolved in DMSO to 10 mM stock. 3-fold serial dilution was performed using an EVO200™ liquid handler (TECAN) to generate ten concentrations of test compound. 0.1% DMSO was employed as vehicle (negative) control. The compound source plate was then spun at room temperature at 1,000 RPM for 1 minute and agitated using a plate shaker for 2 minutes.
For compound treatment, 40 nL of compound were transferred from the compound source plate to the 384-well culture plate using liquid handler Echo550 (LabCyte Inc.). After 6-hour incubation, the plates were removed from the incubator for detection.
For the preliminary annexin V assay, the plates were removed from the incubator and allowed to equilibrate at room temperature for 15 minutes. Culture media was then removed. 20 μL of pre-mixed annexin V-FITC and Hoechst33342 dye working solution were added to each well. The cells were then incubated at room temperature for 20 minutes. […] Afterward, the plate was read using an Acumen eX3 plate reader. The relative activity was calculated according to the following formula: Activity (%)=100%×(CountAnnexin V/CountTotal cell), and EC50 was calculated using GraphPad Prism (v. 5.01).

Data set [4] has as its system MeWo cells. Nature of the data set: Cell morphology after treatment (Example 6). Type of data set: cell-based. The conditions noted are these: 100 μM, 6 hours.
Data set [5] concerns WM115 cells. Put plainly: CellTiter-Glo cell viability assay (Example 9). Type of data set: cell-based. The conditions noted are these: 100, 10, 1 μM; 6, 24, 48, 72 hours. The protocol:
as §1, §2
In general terms: ATP-based viability assays read luminescence as a measure of living cells.

For data set [6], the system named is WM115 cells. Put plainly: Lactate dehydrogenase (LDH) release assay (Example 10). It counts as cell-based. The conditions noted are these: 100, 10, 1 μM; 6, 24, 48, 72 hours. The protocol:
(§3) The LDH assay quantitatively measures lactate dehydrogenase (“LDH”) released into the media from damaged cells as a biomarker for cytotoxicity and cytolysis.
(§4) CytoTox-ONE™ Homogenous Membrane Integrity Assay was purchased from Promega. Cell seeding, preparation of the compound source plate, and exposure of cells to test compounds were performed as described in Example 8.
(§5) Plates were then centrifuged at 1,000 RPM for 1 minute. 20 μL of cell culture medium was transferred into a new 384-well black solid plate. Then, 20 μL of CytoTOX-ONE™ was added into each well and incubated at room temperature for 10 minutes. Afterward, 10 μL of stop solution were added to each well, and the plates were agitated at 500 rpm for 1 minute. Plates were read using an excitation wavelength of 560 nm and an emission wavelength of 590 nm on EnSpire. The relative activity was calculated according to the following formula: Relative Activity (%)=100%×(Lumsample−Lumbkg)/(Lumvehicle−Lumbkg).

For data set [7], the system named is MeWo cells. Described as above. Type of data set: cell-based. To be noted: 100, 10, 1 μM; 6, 24, 48, 72 hours. On the procedure:
as §3, §4, §5

Data set [8] deals with WM115 cells. Nature of the data set: Cell morphology after treatment (Example 6). It counts as cell-based. To be noted: 100 μM, 6 hours.
The subject of data set [9] is WM115 cells. Put plainly: Annexin V assay, additional evaluation (Example 8). It counts as cell-based. To be noted: 100, 10, 1 μM; 6, 24, 48, 72 hours. On the procedure: (§6) To further investigate the impact of test compounds on apoptosis, multiple readouts, covering different stages of apoptosis, were carried out on both MeWo and WM115 cells. Both cell types were treated with test compounds at 3 doses (100 μM, 10 μM, and 1 μM). Staurosporine was used as a positive control. […] The test compounds evaluated were CV-8684. CV-8685, and CV-8688.
(§7) Cell seeding was performed as discussed above with the following exceptions: the final cell density was 4,000 cells/well for 6-hour and 24-hour detections, whereas 2,000 cells/well were used for 48-hour and 72-hour detections. For each time point. 384-well clear bottom plates (Corning 3712) and solid white bottom plates (Corning 3570) were prepared. The plates were incubated as discussed above.
(§8) For preparation of the compound source plate, each test compound was dissolved in DMSO to 10 mM stock. Two additional concentrations were generations by 10-fold dilution to 1 mM and 0.1 mM. Staurosporine was used as positive control and 1% DMSO was employed as vehicle (negative) control. The compound source plate was spun at room temperature at 1,000 RPM for 1 minute and agitated using a plate shaker for 2 minutes.
(§9) 400 nL of test compound was transferred from the compound source plate to 384-well culture plates using Echo550 liquid handler. After 6, 24, 48, and 72 hours, the plates were removed from the incubator for detections.
(§10) Culture media was removed and cells were washed twice with PBS. 20 μL of pre-mixed annexin V-FITC working solution was added to each well. The cells were incubated at room temperature for 20 minutes. Plates were read using Acumen eX3 to count the number of FITC-positive cells. The relative activity was calculated according to the following formula: Relative Activity (%)=100%×(Countsample/Countvehicle).

In data set [10] the test system is MeWo cells. Put plainly: Annexin V assay, additional evaluation (Example 8). Type of data set: cell-based. To be noted: 100, 10, 1 μM; 6, 24, 48, 72 hours. The protocol:
as §6, §7, §8, §9, §10

For orientation: EC50 means the midpoint of the concentration-response curve. The low end stands for an effect from little substance, the high end for a need for much substance. `Cc1ccc2c(Cc3[nH]c4ccccc4c3C=O)c[nH]c2c1` [CV-8686]: the “viability of the tissues, dose response” value in the data set with MelanoDerm™ Skin Model is “slightly lower viability”. The same molecule yielded a concentration for a half-maximal effect (EC50) in [1] (Table 1) of 3.17 µM.
The pEC50 is the EC50 on a negative log10 scale, so that one unit is a factor of ten. Turning to `CC(c1[nH]c2ccccc2c1C=O)c1c[nH]c2ccccc12` (stereo not drawn) [CV-8688], the “inhibition of cell viability” value in the data set with MeWo cells [2] and in the data set with WM115 cells [5] was “inhibited viability of both cell types in a dose-dependent manner” each time. The “annexin V staining” value with MeWo cells [3] (preliminary screen) is “markedly increased annexin V staining”. Moreover, the pEC50 in the data set with MeWo cells [3] (Homo sapiens, MeWo, 10 doses starting from 100 μM, read-out: EC50 of annexin V staining) is 6.04. For the same molecule, the cell morphology entry in the data set with MeWo cells [4] and with WM115 cells [8] was “significantly affected” each time. Also, the LDH release entry in the data set with WM115 cells [6] and with MeWo cells [7] was “induced LDH release at the highest concentration tested” throughout. In addition, the “apoptosis induction (annexin V binding)” value in the data set on WM115 cells [9] and in the data set with MeWo cells [10] was “showed the induction effect within 6 hours of treatment in a dose-dependent manner” throughout. In [1] (Table 1), this molecule yielded a concentration for a half-maximal effect (EC50) of 19.9 µM.
With `c1ccc2c(C(c3c[nH]c4ccccc34)C3CC3)c[nH]c2c1` [AB11644], the “viability of the tissues, dose response” value with MelanoDerm™ Skin Model is given as “slightly lower viability”. Also, in data set [1] (Table 2), the EC50 worked out at 14.9 µM.

The values above are taken from US11220491B2, “Photoprotective compositions containing Malassezia-derived compounds and/or chemical analogs thereof” (Versicolor Technologies, LLC, priority 2018, dated 2022).
